Assay results reported in patent US8946257B2, “N-containing heteroaryl derivatives as JAK3 kinase inhibitors” (Vectura Limited, priority 2009, dated 2015).
Where a name gives a salt, the structure may show the parent alone.

Legend:
[1] = target: catalytic domain of human JAK3 (Homo sapiens, UniProt P52333); experiment: Inhibition of JAK3 activity (Z'-Lyte Kinase Assay kit-Tyr 6 Peptide); format: biochemical
Method: The inhibition of JAK3 kinase activity was determined in 384-well assay microplates using the Z′-Lyte® Kinase Assay kit-Tyr 6 Peptide kit, supplied by Invitrogan (Ref: PV4122), following the manufacturer's instructions.
(§1) In a final volume of 10 μL per well, 2.5 μL of the product to be tested dissolved in 4% DMSO (final concentration of the product to be tested, 0.1-10000 nM) was incubated with 0.3 μg/mL of the catalytic domain of human JAK3 (amino acid sequence 281-1124), 2 μM of the substrate peptide Z′-Lyte® Tyr 6 and 4 μM of ATP; all components were dissolved in 50 mM pH 7.5 Hepes buffer, 10 mM Magnesium chloride (II), 1 mM EGTA and 0.01% Brij® 35. The reaction was started by the addition of said 4 μM ATP; after incubation for 1 hour at 25° C., 5 μL of A Z′-Lyte® Tyr 6 development reagent was added and the mixture was incubated for 1 hour at 25° C. Phosphorylation was then quantified in each well using a Safire2® fluorescence microplate reader from Tecan.

[2] = target: T1, catalytic domain of human JAK2 (Homo sapiens, UniProt O60674); experiment: Inhibition of JAK2 activity (Z'-Lyte Kinase Assay kit-Tyr 6 Peptide); format: biochemical
T1 construct: the catalytic domain of human JAK2
T1 sequence (O60674 849-1124 limits assumed): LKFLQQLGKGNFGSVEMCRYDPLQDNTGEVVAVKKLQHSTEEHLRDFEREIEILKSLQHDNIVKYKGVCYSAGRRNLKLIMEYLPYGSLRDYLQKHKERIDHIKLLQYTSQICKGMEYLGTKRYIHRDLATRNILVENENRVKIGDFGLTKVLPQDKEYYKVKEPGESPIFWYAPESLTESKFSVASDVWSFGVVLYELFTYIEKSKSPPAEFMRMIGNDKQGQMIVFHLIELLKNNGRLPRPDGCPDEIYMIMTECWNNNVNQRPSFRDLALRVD
Method: The inhibition of JAK2 kinase activity was determined in 384-well assay microplates using the Z′-Lyte® Kinase Assay kit-Tyr 6 Peptide kit, supplied by Invitrogen (Ref: PV4122), following the manufacturer's instructions.
as §1, with “with 0.5 μg/well” for “with 0.3 μg/mL”, “human JAK2,” for “human JAK3 (amino acid sequence 281-1124),”, “and 16” for “and 4”, “said 16” for “said 4”

Sequence of catalytic domain of human JAK3 (P52333 781-1124 limits assumed): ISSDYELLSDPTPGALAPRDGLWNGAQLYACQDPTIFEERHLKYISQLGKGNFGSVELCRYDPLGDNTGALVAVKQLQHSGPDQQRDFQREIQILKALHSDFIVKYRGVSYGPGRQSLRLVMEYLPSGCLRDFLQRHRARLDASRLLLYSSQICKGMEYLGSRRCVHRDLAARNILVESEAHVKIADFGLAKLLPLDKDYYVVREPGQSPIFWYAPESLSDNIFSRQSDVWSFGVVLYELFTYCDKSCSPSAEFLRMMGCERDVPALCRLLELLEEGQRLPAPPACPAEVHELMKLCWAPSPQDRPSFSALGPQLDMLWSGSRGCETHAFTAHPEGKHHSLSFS

SMILES | inhibition at 1 µM [1] [%] | inhibition at 1 µM [2] [%]
CC(=O)N1CCC(n2c(=O)[nH]c3cnc(-c4cnn5ccc(C)cc45)nc32)CC1 [Example 1s, 9-(1-acetylpiperidin-4-yl)-2-(5-methylpyrazolo[1,5-a]pyridin-3-yl)-7H-purin-8(9H)-one] | > 50 | > 50
N#Cc1ccn2ncc(-c3ccc4[nH]c(=O)n(C5CCOCC5)c4n3)c2c1 [Example 2, 3-(2-Oxo-3-(tetrahydro-2H-pyran-4-yl)-2,3-dihydro-1H-imidazo[4,5-b]pyridin-5-yl)pyrazolo[1,5-a]pyridine-5-carbonitrile] | > 50 | > 50
O=c1[nH]c2ccc(-c3cnn4ccccc34)nc2n1C1CCOCC1 [Example 2e, 5-(pyrazolo[1,5-a]pyridin-3-yl)-3-(tetrahydro-2H-pyran-4-yl)-1H-imidazo[4,5-b]pyridin-2(3H)-one] | > 50 | > 50
Cn1c(=O)n(C2CCOCC2)c2nc(-c3cnn4ccc(C#N)cc34)ncc21 [Example 4, 3-(7-Methyl-8-oxo-9-tetrahydro-2H-pyran-4-yl-8,9-dihydro-7H-purin-2yl)pyrazolo[1,5-a]pyridine-5-carbonitrile] | > 50 | > 50
COCCn1c(=O)n(C2CCOCC2)c2nc(-c3cnn4ccc(C#N)cc34)ncc21 [Example 16, 3-(7-(2-Methoxyethyl)-8-oxo-9-(tetrahydro-2H-pyran-4-yl)-8,9-dihydro-7H-purin-2-yl)pyrazolo[1,5-a]pyridine-5-carbonitrile] | – | > 50
N#Cc1ccn2ncc(-c3ccc4ncn(C5CCOCC5)c4n3)c2c1 [Example 19, 3-(3-(Tetrahydro-2H-pyran-4-yl)-3H-imidazo[4,5-b]pyridin-5-yl)pyrazolo[1,5-a]pyridine-5-carbonitrile] | – | > 50
Cc1nc2ccc(-c3cnn4ccc(C#N)cc34)nc2n1C1CCOCC1 [Example 20, 3-(2-Methyl-3-(tetrahydro-2H-pyran-4-yl)-3H-imidazo[4,5-b]pyridin-5-yl)pyrazolo[1,5-a]pyridine-5-carbonitrile] | > 50 | > 50
Cn1ccnc1-c1nc2cnc(-c3cnn4ccc(C#N)cc34)nc2n1C1CCOCC1 [Example 21, 3-(8-(1-Methyl-1H-imidazol-2-yl)-9-(tetrahydro-2H-pyran-4-yl)-9H-purin-2-yl)pyrazolo[1,5-a]pyridine-5-carbonitrile] | > 50 | –
CCNc1nc2cnc(-c3cnn4ccc(C#N)cc34)nc2n1C1CCOCC1 [Example 22, 3-[8-(Ethylamino)-9-tetrahydro-2H-pyran-4-yl-9H-purin-2-yl]pyrazolo[1,5-a]pyridine-5-carbonitrile] | > 50 | > 50
c1ccn2ncc(-c3ncc4nc(C5CCCC5)n(C5CCOCC5)c4n3)c2c1 [Example 23, 8-Cyclopentyl-2-(pyrazolo[1,5-a]pyridin-3-yl)-9-(tetrahydro-2H-pyran-4-yl)-9H-purine] | > 50 | > 50
CC(=O)N1CCC[C@H](n2c(=O)n(C)c3ccc(-c4cnn5ccccc45)nc32)C1 [Example 24, (S)-3-(1-Acetylpiperidin-3-yl)-1-methyl-5-(pyrazolo[1,5-a]pyridin-3-yl)-1H-imidazo[4,5-b]pyridin-2(3H)-one] | > 50 | > 50
Cn1c(=O)n([C@H]2CCCN(C(=O)C3(C#N)CC3)C2)c2nc(-c3cnn4ccccc34)ccc21 [Example 25, (S)-1-(3-(1-Methyl-2-oxo-5-(pyrazolo[1,5-a]pyridin-3-yl)-1H-imidazo[4,5-b]pyridin-3(2H)-yl)piperidine-1-carbonyl)cyclopropanecarbonitrile] | > 50 | > 50
N#Cc1ccn2ncc(-c3ncc4[nH]c(=O)n([C@H]5CCCN(C(=O)C6(C#N)CC6)C5)c4n3)c2c1 [Example 27, (S)-3-(9-(1-(1-Cyanocyclopropanecarbonyl)piperidin-3-yl)-8-oxo-8,9-dihydro-7H-purin-2-yl)pyrazolo[1,5-a]pyridine-5-carbonitrile] | > 50 | > 50
C[C@H](CO)n1c(=O)[nH]c2cnc(-c3cnn4ccc(C#N)cc34)nc21 [Example 28, (R)-3-(9-(1-Hydroxypropan-2-yl)-8-oxo-8,9-dihydro-7H-purin-2-yl)pyrazolo[1,5-a]pyridine-5-carbonitrile] | > 50 | –
Cc1ccn2ncc(-c3ncc4ncn([C@H]5CCCN(C(=O)CC#N)C5)c4n3)c2c1 [Example 29, (S)-3-(3-(2-(5-Methylpyrazolo[1,5-a]pyridin-3-yl)-9H-purin-9-yl)piperidin-1-yl)-3-oxopropanenitrile] | > 50 | > 50
C[C@H](CO)n1c(=O)n(C)c2cnc(-c3cnn4ccc(C#N)cc34)nc21 [Example 32, (R)-3-(9-(1-Hydroxypropan-2-yl)-7-methyl-8-oxo-8,9-dihydro-7H-purin-2-yl)pyrazolo[1,5-a]pyridine-5-carbonitrile] | > 50 | –
Cn1c(=O)n([C@H]2CC[C@H](O)CC2)c2nc(-c3cnn4ccc(C#N)cc34)ncc21 [Example 35, 3-(9-(trans-4-Hydroxycyclohexyl)-7-methyl-8-oxo-8,9-dihydro-7H-purin-2-yl)pyrazolo[1,5-a]pyridine-5-carbonitrile] | > 50 | –
N#Cc1ccn2ncc(-c3ncc4[nH]c(=O)n(CC(=O)NCC(F)(F)F)c4n3)c2c1 [Example 36, 2-(2-(5-Cyanopyrazolo[1,5-a]pyridin-3-yl)-8-oxo-7H-purin-9(8H)-yl)-N-(2,2,2-trifluoroethyl)acetamide] | > 50 | –
Cn1c(=O)n(C2CCOCC2)c2nc(-c3cnc4ccccn34)ncc21 [Example 37, 2-(Imidazo[1,2-a]pyridin-3-yl)-7-methyl-9-(tetrahydro-2H-pyran-4-yl)-7H-purin-8(9H)-one] | > 50 | –

The remaining lines, values ahead:

inhibition at 1 µM [1] [%] | inhibition at 1 µM [2] [%] | SMILES
> 50 | > 50 | Cn1c(=O)n(C2CCOCC2)c2nc(-c3cnn4ccccc34)ccc21 [Example 5s, 1-methyl-5-(pyrazolo[1,5-a]pyridin-3-yl)-3-(tetrahydro-2H-pyran-4-yl)-1H-imidazo[4,5-b]pyridin-2(3H)-one]
> 50 | – | O=c1[nH]c2ccc(-c3cnn4ccccc34)nc2n1[C@H]1CCCNC1 [Example 6x, (S)-3-(piperidin-3-yl)-5-(pyrazolo[1,5-a]pyridin-3-yl)-1H-imidazo[4,5-b]pyridin-2(3H)-one hydrochloride]
– | > 50 | C[C@@H](C(=O)N(C)C)n1c(=O)[nH]c2cnc(-c3cnn4ccccc34)nc21 [Example 15k]
– | > 50 | CN(C)CCn1c(=O)n([C@H]2CCCN(C(=O)CC#N)C2)c2nc(-c3cnn4ccc(C#N)cc34)ncc21 [Example 16a]
– | > 50 | Cc1nc2cnc(-c3cnn4ccc(C#N)cc34)nc2n1C1CCOCC1 [Example 18a]
– | > 50 | Cc1nc2cnc(-c3cnn4ccc(C#N)cc34)nc2n1C1CCC(F)(F)CC1 [Example 18b]
– | > 50 | c1csc(-c2nc3cnc(-c4cnn5ccccc45)nc3n2C2CCOCC2)c1 [Example 21k]
– | > 50 | c1ccn2ncc(-c3ncc4nc(C5CC5)n(C5CCOCC5)c4n3)c2c1 [Example 23d]
– | > 50 | Cn1c(=O)n([C@H]2CCCN(C(=O)C(C)(C)C)C2)c2nc(-c3cnn4ccccc34)ccc21 [Example 24a]
– | > 50 | CCC(=O)N1CCC[C@H](n2c(=O)n(C)c3ccc(-c4cnn5ccccc45)nc32)C1 [Example 24c]
– | > 50 | CCOC(=O)N1CCC[C@H](n2c(=O)[nH]c3cnc(-c4cnn5ccc(C#N)cc45)nc32)C1 [Example 26a]
– | > 50 | CC(C)NC(=O)N1CCC[C@H](n2c(=O)[nH]c3cnc(-c4cnn5ccc(C#N)cc45)nc32)C1 [Example 26c]
– | > 50 | CC(C)(C)NC(=O)N1CCC[C@H](n2c(=O)[nH]c3cnc(-c4cnn5ccc(C#N)cc45)nc32)C1 [Example 26d]
– | > 50 | CCOC(=O)n1c(=O)n([C@H]2CCCN(C(=O)CC#N)C2)c2nc(-c3cnn4ccccc34)ncc21 [Example 26e]
– | > 50 | CC(=O)n1c(=O)n([C@H]2CCCN(C(=O)CC#N)C2)c2nc(-c3cnn4ccccc34)ncc21 [Example 26f]
– | > 50 | CC(=O)N1CCC[C@H](n2c(=O)n(C)c3cnc(-c4cnn5ccccc45)nc32)C1 [Example 26g]
– | > 50 | N#Cc1ccn2ncc(-c3ncc4[nH]c(=O)n([C@H]5CCCN(C(=O)C6(O)CC6)C5)c4n3)c2c1 [Example 27a]
– | > 50 | CCC(=O)Nc1nc2cnc(-c3cnn4ccccc34)nc2n1C1CCOCC1 [Example 34b]
